Values belong to the compound of their own block, whether it stands above or below them.
Columns and labels:
dilated Cardiomyopathy = experiment: Clinical trials in cardiomyopathy; assay type: in vivo, human; conditions: clinically and in ECHO cardiographic measurements
From the text: Improvement is shown both clinically and in the ECHO cardiographic measurements.

[1] = tested on: muscle weakness (muscle dystrophies, post stroke weakness); experiment: Clinical trials for treatment of weakness of muscles; assay type: in vivo, human
From the text: The complex used in treatment of muscle weakness for different underlying causes (muscle dystrophies post stroke weakness). […] When the patient reaches the optimum dose, onset of improvement in muscle power is observed within hours of drug intake.

[2] = tested on: male infertility (sperm count, motility); experiment: Male infertility study, 20 patients; assay type: in vivo, human
[3] = Physical properties: stability of the complex; assay type: physicochemical; conditions: solid, when well-dried
rats [4] = experiment: Bioavailability studies on rats (liver and kidney functions, blood picture, lipid profile); assay type: in vivo
From the text: The study on rats included five groups, group 1 control, 2 receiving cu, group.2 pyrazinic, group 3 complex with large dose, & group 5 receiving complex with small dose.

[5] = tested on: stem cell differentiation; experiment: In vivo stem cell, CD4 and CD8 counts before and during medication; conditions: before and at regular intervals of medication
From the text: We hypothesized that the drug may have a role in stimulating the stem cells present in the various organs to differentiate. […] In vivo we measured the stem cell count together with CD8 and CD4 cells before, and at regular intervals of medication.

fatigue = experiment: Clinical trials for treatment of fatigue in humans; assay type: in vivo
rats [6] = experiment: Toxicity of the complex (LD50, mortality within 24 hrs); assay type: in vivo
Method: Seventy two rats (250+/−2.0 g b.wt) were randomly located into 12 groups of 6 rats each.
Mortality in each group were recorded within 24 hrs.

[7] = Physical properties: solubility of the complex; assay type: physicochemical
From the text: Solubility: the complex is insoluble in non-polar solvents, e.g. benzene, carbon tetrachloride, etc., and insoluble in polar solvents: water, methanol, ethanol, acetone, but soluble in these solvents upon heating in inert atmosphere, to prevent oxidation.

Compound: [CuCI (pyrazinic acid)2].2H2O [complex]
cases improved, dilated cardiomyopathy due to other causes (dilated Cardiomyopathy): 80%
improvement of dilated Cardiomyopathy secondary to Duchenne muscle dystrophy (dilated Cardiomyopathy): improved all cases
Clinical improvement in DMS patients ([1]; affected by age, weight and degree of dystrophy): dose dependant
onset of improvement in muscle power ([1]; at optimum dose, after drug intake): within hours
sperm motility ([2]; all cases): significant improvement of motility
azospermic patients who got healthy babies ([2]; among the responders): two of them got healthy babies
oligospermia cases who got healthy babies ([2]; human, in vivo): four cases got also healthy babies
sperm count in azospermic patients after treatment ([2]; responders, within 6 weeks of treatment): 1.5-3 millions/hpf
sperm count in Oligospermia ([2]; within 1 month of treatment): doubling of the count
azospermic patients whose count increased ([2]; within 6 weeks of treatment): seven out of nine
Stability [3]: sufficiently stable when well-dried
Lipid profile (rats [4]): didn't show significant difference
liver and kidney functions versus control (rats [4]): no significant difference
lymphocytic count (complete blood picture) (rats [4]; large and small dose groups, not exceeding the normal range): increase of lymphocytic count
CD4/CD8 [5]: no disturbance
CD4 and CD8 number [5]: increase
stem cell count [5]: significant decrease
muscle pain (fatigue; all types of fatigue): relieved the muscle pain
physical activity and productivity (fatigue; all types of fatigue): increased the physical activity and productivity
agonizing fatigue in Parkinsonism, myositis, disseminated sclerosis (fatigue; human, in vivo): improves markedly
LD50 (intrapperitoneally) (rats [6]; intraperitoneal): 128 mg/kg
LD50 (oral) (rats [6]; oral): 1104.17 mg/kg
Solubility in non-polar solvents ([7]; e.g. benzene, carbon tetrachloride): insoluble
Solubility in polar solvents upon heating ([7]; upon heating in inert atmosphere): soluble
Solubility in polar solvents ([7]; water, methanol, ethanol, acetone): insoluble

Lipid profile (rats [4]): didn't show significant difference
liver and kidney functions versus control (rats [4]): no significant difference
Compound: O=C(O)c1cnccn1 [pyrazinic, pyrazinic acid, reference compound]

— US20110183951A1, “Copper (1) Complex” (priority 2006, published 2011)
